Measurements published in ChEMBL document CHEMBL1201862, “PubChem BioAssay data set” (2004).
Activity calls are given as the source filed them.

Experiments:
A-375 [1] = test: A375 melanoma cell viability reduction, dose response, counter-screen for MITF modulator project, cherry-pick samples, set 2 (AID 540335); type: functional, cell-based; settings: Homo sapiens
A-375 [2] = test: MITF: Counter assay: A375 proliferation Measured in Cell-Based System Using Plate Reader - 2084-03_Inhibitor_Dose_DryPowder_Activity. [Related pubchem assays (depositor defined):AID488944]; type: functional; settings: Homo sapiens
[3] = biological target: Glucose-6-phosphate 1-dehydrogenase (Homo sapiens, UniProt P11413); test: human G6PD enzyme inhibitors, dose response, selectivity assay for P. falciparum G6PD inhibitor project, biochemical, fluorescence (AID 504792); type: functional
Glucose-6-phosphate 1-dehydrogenase, sequence (P11413 whole entry): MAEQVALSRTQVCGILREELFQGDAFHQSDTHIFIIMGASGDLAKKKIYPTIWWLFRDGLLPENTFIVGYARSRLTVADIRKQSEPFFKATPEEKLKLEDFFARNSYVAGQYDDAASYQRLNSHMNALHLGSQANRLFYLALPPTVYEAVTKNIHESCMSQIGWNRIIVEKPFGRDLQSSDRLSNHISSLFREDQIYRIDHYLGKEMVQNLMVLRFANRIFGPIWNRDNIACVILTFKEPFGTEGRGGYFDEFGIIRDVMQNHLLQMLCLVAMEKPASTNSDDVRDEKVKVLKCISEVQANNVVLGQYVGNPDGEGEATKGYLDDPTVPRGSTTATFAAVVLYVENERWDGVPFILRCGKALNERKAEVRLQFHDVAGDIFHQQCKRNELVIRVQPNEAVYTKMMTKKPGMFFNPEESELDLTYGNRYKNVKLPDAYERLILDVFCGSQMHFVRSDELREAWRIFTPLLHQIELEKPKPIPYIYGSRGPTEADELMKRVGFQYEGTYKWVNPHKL

Beta-lactamase [4] = biological target: Beta-lactamase (Pseudomonas aeruginosa, UniProt Q79MP6);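 note: biochemical dose-response test of metallo-beta-lactamase enzyme inhibition, read out by epi-absorbance; purified recombinant IMP-1 metallo-beta-lactamase with nitrocefin as substrate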
Beta-lactamase (Pseudomonas aeruginosa, UniProt Q79MP6), sequence (Q79MP6 whole entry): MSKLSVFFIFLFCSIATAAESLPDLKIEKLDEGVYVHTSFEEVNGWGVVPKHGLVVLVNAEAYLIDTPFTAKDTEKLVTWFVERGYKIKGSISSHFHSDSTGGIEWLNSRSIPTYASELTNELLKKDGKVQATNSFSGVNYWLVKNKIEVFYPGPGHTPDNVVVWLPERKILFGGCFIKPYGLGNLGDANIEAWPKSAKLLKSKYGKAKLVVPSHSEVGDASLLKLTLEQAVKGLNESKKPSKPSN

[5] = biological target: UDP-galactopyranose mutase (Mycobacterium tuberculosis, UniProt P9WIQ1); test: Inhibitors of Mycobacterium tuberculosis UDP-galactopyranose mutase (UGM) enzyme Measured in Biochemical System Using Plate Reader - 2105-02_Inhibitor_Dose_CherryPick_Activity. [Related pubchem assays (depositor defined):AID504439]
UDP-galactopyranose mutase, sequence (P9WIQ1 whole entry): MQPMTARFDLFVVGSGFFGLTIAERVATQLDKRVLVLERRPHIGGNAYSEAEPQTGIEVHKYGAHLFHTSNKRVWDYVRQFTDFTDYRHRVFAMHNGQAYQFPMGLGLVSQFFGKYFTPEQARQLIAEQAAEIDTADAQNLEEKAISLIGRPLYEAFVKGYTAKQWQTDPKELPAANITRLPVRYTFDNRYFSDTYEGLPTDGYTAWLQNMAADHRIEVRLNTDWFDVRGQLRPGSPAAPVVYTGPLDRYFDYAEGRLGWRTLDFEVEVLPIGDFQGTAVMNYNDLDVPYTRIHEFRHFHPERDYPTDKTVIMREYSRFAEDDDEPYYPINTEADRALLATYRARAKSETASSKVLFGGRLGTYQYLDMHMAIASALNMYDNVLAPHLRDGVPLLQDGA

Beta-lactamase [6] = biological target: Beta-lactamase (Salmonella choleraesuis (strain SC-B67), UniProt Q5J463)
Beta-lactamase (Salmonella choleraesuis (strain SC-B67), UniProt Q5J463), sequence (Q5J463 whole entry): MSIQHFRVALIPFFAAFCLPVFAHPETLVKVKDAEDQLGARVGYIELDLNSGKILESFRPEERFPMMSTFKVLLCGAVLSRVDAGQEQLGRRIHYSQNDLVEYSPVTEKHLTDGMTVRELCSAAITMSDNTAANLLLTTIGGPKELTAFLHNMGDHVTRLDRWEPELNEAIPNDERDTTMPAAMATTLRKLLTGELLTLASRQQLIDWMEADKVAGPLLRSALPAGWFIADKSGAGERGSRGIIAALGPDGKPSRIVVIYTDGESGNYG

ORF 73 = ORF 73 (Human herpesvirus 8, UniProt O40947); test: inhibitors of C-LANA binding to LBS DNA, dose response, biochemical, fluorescence polarization, cherry-picked samples (AID 504725); parameters: species or system Human gammaherpesvirus 8;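 note: fluorescence polarization of a labeled DNA duplex reporting LANA DNA binding; potency is for inhibitors that block LANA binding to the DNA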
ORF 73, sequence (O40947 whole entry): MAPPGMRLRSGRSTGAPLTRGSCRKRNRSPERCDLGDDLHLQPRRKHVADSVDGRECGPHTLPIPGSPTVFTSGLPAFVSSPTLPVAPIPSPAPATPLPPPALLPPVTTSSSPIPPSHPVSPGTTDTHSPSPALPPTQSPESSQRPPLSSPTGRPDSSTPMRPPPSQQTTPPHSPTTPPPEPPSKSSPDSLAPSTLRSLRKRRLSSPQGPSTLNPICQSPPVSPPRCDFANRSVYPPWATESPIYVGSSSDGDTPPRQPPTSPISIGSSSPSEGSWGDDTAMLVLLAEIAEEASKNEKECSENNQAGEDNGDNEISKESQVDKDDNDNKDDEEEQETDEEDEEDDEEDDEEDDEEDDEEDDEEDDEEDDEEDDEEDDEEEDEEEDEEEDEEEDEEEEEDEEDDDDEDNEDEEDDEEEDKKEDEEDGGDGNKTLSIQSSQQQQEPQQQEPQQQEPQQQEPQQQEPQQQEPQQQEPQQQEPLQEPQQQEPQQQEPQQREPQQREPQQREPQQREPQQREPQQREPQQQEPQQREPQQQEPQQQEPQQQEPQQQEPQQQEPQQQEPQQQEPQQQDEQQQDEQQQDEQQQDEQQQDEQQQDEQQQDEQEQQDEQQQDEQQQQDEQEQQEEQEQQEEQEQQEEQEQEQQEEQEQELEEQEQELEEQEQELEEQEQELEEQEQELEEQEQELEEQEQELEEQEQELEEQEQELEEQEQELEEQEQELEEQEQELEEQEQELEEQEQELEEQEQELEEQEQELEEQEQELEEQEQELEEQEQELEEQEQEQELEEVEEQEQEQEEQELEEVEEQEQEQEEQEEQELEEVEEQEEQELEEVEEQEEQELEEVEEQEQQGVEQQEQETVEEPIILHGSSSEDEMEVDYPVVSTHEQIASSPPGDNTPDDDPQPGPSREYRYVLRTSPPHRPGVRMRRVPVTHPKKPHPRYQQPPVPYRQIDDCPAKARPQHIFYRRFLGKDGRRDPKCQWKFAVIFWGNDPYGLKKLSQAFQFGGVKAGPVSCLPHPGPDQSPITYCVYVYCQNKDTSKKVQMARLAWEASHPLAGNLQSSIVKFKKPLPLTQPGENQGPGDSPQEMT

HeLa [7] = test: HeLa cell cytotoxicity, dose response, cytotoxicity control, 24 h, cherry-picked samples (AID 504726); type: functional, cell-based; settings: Homo sapiens;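 note: potency for cytotoxicity as loss of luminescence signal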
HeLa [8] = test: HeLa cell cytotoxicity, dose response, cytotoxicity control for MITF activator project, CellTiter-Glo luminescence, cherry-pick samples (AID 540259); type: functional, cell-based; settings: Homo sapiens
[9] = biological target: T1, Type-1 angiotensin II receptor (Homo sapiens, UniProt P30556); test: AT1 receptor agonists, dose response, selectivity assay for APJ receptor agonist project, cell-based, uHTS hits (AID 488865); type: functional;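 note: beta-arrestin recruitment to AT1 measured by enzyme fragment complementation luminescence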
T1 sequence (P30556 whole entry): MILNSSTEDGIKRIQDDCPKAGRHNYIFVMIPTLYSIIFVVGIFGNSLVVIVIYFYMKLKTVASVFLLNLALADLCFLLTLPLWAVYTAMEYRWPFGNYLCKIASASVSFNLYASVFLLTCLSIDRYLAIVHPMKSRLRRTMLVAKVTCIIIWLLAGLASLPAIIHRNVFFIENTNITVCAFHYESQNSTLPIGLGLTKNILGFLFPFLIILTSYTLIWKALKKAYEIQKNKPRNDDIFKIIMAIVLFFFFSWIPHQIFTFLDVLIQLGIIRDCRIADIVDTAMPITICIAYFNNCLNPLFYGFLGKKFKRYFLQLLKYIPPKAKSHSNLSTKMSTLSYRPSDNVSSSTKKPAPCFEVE

[10] = biological target: T2, Mannose-6-phosphate isomerase (Homo sapiens, UniProt P34949); test: human PMI inhibitors, high substrate, primary screen, biochemical, fluorescence intensity, high mannose 6-phosphate (AID 1220)
T2 sequence (P34949 whole entry): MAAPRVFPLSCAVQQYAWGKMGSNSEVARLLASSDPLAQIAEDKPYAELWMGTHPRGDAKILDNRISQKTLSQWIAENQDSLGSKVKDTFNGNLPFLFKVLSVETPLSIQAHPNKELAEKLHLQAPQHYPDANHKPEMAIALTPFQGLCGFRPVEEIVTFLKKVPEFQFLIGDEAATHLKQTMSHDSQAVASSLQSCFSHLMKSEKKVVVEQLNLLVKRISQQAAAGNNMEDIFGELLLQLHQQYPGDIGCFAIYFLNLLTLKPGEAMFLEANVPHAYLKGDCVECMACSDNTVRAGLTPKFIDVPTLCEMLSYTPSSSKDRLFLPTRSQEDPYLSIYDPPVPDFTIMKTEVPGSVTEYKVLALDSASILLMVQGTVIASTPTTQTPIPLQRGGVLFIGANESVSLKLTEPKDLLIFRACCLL

[11] = biological target: T3, Corticotropin-releasing factor receptor 2/Corticotropin-releasing factor-binding protein (Homo sapiens, UniProt P24387+Q13324); test: activators of CRF receptor 2 with binding protein – uHTS hits, confirmation (AID 602473); type: functional; settings: read-out: EC50_Mean
T3 sequence (Q13324 whole entry): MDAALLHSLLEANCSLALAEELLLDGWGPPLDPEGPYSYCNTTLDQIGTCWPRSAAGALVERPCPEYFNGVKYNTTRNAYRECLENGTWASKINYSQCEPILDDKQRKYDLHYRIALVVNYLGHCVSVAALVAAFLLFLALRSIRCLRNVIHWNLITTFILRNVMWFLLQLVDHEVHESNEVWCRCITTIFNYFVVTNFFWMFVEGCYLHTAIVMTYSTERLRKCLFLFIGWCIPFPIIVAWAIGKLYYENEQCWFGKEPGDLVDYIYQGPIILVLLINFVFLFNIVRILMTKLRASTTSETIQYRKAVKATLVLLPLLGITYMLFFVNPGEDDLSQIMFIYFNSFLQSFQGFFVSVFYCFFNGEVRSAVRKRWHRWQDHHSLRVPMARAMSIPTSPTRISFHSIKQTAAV
T3 sequence (P24387 whole entry): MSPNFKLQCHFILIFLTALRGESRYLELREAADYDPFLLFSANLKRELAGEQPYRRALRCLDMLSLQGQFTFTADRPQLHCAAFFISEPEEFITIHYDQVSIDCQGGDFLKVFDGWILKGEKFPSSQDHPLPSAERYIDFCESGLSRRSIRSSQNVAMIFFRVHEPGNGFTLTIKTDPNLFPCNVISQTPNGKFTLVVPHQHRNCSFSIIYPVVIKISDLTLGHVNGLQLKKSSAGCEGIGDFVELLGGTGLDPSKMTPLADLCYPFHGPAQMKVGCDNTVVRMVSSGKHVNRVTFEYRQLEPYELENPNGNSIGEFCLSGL

[12] = P. falciparum late gametocyte killing, dose response, luminescence (AID 1117278); type: functional, cell-based;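 note: gametocytes exposed to compound for 24 hours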
[13] = Jurkat T cell cytotoxicity, dose response, cytotoxicity control for P. falciparum gametocyte viability project, luminescence (AID 1117277); type: functional, cell-based;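 note: potency reflects loss of cellular ATP meaning fewer viable cells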
[14] = biological target: T2, Mannose-6-phosphate isomerase; test: PMI enzyme inhibitors, confirmation, biochemical, fluorescence intensity (AID 1535)
Escherichia coli = test: microbe, parasite or virus in culture
Cytochrome P450 3A4 [15] = biological target: T4, Cytochrome P450 3A4 (Homo sapiens, UniProt P08684);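 note: CYP3A4 tested as one member of a cytochrome P450 panel screen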
T4 sequence (P08684 whole entry): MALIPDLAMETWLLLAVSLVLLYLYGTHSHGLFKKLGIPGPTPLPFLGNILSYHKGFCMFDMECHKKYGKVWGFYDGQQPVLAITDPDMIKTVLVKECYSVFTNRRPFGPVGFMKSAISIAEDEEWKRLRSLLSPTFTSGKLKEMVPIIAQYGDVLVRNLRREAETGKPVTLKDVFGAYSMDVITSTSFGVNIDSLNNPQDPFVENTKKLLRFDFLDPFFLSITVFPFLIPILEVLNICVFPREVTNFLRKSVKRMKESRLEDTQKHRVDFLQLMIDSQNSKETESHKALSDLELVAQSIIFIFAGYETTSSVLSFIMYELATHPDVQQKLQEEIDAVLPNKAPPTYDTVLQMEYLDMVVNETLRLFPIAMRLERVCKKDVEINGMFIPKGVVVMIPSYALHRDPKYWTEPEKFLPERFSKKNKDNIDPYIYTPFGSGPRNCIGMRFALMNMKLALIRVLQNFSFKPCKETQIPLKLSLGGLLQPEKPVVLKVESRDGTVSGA

Cytochrome P450 2C19 = Cytochrome P450 2C19 (Homo sapiens, UniProt P33261); test: Cytochrome panel assay with activity outcomes. Panel member name: p450-cyp2c19 Compounds with AC50 equal or less than 10 uM are considered active; type: functional
Cytochrome P450 2D6 = Cytochrome P450 2D6 (Homo sapiens, UniProt P10635);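 note: CYP2D6 member of a cytochrome P450 panel assay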
Cytochrome P450 2D6, sequence (P10635 whole entry): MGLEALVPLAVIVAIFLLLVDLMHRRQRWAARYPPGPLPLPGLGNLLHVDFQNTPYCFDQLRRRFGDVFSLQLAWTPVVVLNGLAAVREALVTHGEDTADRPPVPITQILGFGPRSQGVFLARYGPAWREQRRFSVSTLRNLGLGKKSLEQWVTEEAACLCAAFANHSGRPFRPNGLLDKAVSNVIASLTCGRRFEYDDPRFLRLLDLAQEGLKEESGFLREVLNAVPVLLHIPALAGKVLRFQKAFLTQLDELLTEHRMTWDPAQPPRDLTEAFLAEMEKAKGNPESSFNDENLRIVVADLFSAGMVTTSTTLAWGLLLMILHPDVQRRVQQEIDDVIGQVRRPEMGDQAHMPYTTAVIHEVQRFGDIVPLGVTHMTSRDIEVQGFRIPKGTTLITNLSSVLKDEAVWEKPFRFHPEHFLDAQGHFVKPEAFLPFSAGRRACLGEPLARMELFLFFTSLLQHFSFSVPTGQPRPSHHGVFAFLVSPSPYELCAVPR

[16] = biological target: DNA dC->dU-editing enzyme APOBEC-3A (Homo sapiens, UniProt P31941); test: Dose Response confirmation of small molecule APOBEC3A DNA Deaminase Inhibitors via a fluorescence-based single-stranded DNA deaminase assay. [Related pubchem assays (depositor defined):AID493011, AID493024]; type: functional
Cytochrome P450 3A4 [17] = biological target: T4, Cytochrome P450 3A4; remark: listed apart in the source
[18] = biological target: Induced myeloid leukemia cell differentiation protein Mcl-1 (Homo sapiens, UniProt Q07820); type: functional
Induced myeloid leukemia cell differentiation protein Mcl-1, sequence (Q07820 whole entry): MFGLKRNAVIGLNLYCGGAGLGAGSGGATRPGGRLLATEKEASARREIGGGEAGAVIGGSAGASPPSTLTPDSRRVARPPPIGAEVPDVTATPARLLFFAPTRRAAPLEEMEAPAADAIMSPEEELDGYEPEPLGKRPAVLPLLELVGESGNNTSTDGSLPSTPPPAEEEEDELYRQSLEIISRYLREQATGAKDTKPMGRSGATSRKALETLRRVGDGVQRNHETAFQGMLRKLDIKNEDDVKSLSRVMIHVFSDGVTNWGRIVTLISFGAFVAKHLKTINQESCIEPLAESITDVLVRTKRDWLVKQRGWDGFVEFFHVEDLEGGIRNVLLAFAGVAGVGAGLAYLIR

Estrogen receptor beta = Estrogen receptor beta (Homo sapiens, UniProt Q92731); test: ERβ–SRC-3 coactivator interaction inhibitors, confirmation, orthogonal assay, biochemical, ELISA, streptavidin-HRP readout (AID 1060)
Estrogen receptor beta, sequence (Q92731 whole entry, the tested form may be a part): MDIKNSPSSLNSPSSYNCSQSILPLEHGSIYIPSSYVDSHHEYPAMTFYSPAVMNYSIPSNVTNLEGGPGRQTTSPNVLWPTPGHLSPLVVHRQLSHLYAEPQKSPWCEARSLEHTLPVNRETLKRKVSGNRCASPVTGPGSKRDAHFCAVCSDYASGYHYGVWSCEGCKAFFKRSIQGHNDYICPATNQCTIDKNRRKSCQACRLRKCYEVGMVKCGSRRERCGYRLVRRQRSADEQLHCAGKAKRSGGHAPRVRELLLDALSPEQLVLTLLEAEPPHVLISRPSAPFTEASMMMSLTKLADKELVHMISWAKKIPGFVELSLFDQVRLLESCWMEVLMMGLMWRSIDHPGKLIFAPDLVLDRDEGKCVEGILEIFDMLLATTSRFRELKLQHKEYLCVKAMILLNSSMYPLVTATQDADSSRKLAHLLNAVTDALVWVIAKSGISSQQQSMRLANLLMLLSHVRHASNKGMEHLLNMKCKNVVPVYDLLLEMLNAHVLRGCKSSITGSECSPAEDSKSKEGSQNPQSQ

[19] = biological target: T5, Carboxy-terminal domain RNA polymerase II polypeptide A small phosphatase 1 (Homo sapiens, UniProt Q9GZU7); test: inhibitors of CTDSP1, concentration-response testing, biochemical assay, absorbance-based, actives from ultra-high-throughput screening (AID 540297); type: functional
T5 sequence (Q9GZU7 whole entry): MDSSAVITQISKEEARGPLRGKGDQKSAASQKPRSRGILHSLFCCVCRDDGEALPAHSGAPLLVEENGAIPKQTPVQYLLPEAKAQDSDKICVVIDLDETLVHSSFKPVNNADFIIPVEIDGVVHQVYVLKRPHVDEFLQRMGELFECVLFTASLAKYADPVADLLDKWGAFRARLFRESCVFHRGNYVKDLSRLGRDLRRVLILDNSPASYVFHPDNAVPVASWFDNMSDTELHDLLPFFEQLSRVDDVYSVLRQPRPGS

Estrogen receptor = biological target: T6, Estrogen receptor (Homo sapiens, UniProt P03372);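 note: potency for inhibiting coactivator peptide recruitment to the receptor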
T6 sequence (P03372 whole entry): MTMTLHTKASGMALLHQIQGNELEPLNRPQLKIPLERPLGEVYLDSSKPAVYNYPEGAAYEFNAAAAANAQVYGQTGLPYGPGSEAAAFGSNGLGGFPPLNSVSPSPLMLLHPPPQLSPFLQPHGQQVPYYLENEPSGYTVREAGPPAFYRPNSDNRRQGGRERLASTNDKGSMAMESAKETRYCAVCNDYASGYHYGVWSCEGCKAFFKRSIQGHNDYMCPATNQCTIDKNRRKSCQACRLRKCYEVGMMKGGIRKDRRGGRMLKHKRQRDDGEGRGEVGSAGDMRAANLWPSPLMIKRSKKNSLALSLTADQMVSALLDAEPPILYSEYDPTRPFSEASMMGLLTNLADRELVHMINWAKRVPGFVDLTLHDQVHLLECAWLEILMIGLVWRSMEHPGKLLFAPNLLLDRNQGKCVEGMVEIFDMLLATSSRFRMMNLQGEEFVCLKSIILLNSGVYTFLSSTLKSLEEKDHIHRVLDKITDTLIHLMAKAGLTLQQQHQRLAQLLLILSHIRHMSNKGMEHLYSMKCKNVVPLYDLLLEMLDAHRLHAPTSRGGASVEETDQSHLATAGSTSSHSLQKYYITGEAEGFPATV

Cytochrome P450 1A2 = biological target: T7, Cytochrome P450 1A2 (Homo sapiens, UniProt P05177);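 note: PubChem cytochrome P450 panel assay, CYP1A2 panel member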
T7 sequence (P05177 whole entry): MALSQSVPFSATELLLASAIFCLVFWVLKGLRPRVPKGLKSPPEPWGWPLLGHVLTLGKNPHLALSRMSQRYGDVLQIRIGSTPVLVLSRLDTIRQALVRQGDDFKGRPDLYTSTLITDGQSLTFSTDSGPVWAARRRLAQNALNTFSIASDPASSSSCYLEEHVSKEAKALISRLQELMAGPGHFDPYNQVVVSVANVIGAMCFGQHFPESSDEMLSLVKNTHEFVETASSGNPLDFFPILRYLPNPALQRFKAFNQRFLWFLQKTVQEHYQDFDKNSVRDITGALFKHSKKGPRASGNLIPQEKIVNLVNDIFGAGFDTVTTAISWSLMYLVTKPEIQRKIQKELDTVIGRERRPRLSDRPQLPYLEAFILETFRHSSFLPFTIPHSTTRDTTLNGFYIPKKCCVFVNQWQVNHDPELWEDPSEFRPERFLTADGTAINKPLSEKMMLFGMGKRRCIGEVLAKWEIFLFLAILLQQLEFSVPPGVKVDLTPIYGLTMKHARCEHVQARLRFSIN

[20] = biological target: DNA dC->dU-editing enzyme APOBEC-3G (Homo sapiens, UniProt Q9HC16); type: functional;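 note: Dose-response counterscreen measuring inhibition of APOBEC3G DNA deaminase activity, run while confirming APOBEC3A inhibitors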
DNA dC->dU-editing enzyme APOBEC-3G, sequence (Q9HC16 whole entry): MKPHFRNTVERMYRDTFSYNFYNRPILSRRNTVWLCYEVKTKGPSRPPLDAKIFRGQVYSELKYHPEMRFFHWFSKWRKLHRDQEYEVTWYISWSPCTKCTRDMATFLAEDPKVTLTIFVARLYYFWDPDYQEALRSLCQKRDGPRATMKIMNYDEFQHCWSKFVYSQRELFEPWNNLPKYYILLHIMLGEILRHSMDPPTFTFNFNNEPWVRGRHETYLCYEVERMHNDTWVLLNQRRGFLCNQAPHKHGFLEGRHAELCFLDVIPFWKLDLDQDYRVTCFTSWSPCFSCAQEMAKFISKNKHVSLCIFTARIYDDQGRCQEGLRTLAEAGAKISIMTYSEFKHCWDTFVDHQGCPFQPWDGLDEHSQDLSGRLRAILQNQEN

In the case of `Cc1ccc(NC(=O)Nc2ccccc2)nc1`, the AC50 (A-375 [1]) is reported as > 35 µM (active) and the AC50 (A-375 [2]) is reported as > 35 µM (active).

In the case of `Cc1ccc(-c2nn(C)c(=O)c3ccccc23)cc1CNC(=O)/C=C/c1ccccc1`, the IC50 [3] is reported as 49.5 µM (inactive).

With `Cc1nn(C)c(C)c1N1C(=O)c2cccc3c(N)ccc(c23)C1=O` the IC50 (Beta-lactamase [4]) was 9.3 µM (active), the AC50 [5] was 1.39 µM (active) and the IC50 (Beta-lactamase [6]) was 5.25 µM (active). For the same molecule, the AC50 (ORF 73) was 810 nM (active) and the AC50 (HeLa [7]) was 264 µM (active).

For `COc1ccccc1N1CCN(/N=C/c2cccc(Cl)c2)CC1`, the AC50 (HeLa [8]) was 161 µM (active), the AC50 (A-375 [1]) was > 35 µM (active) and the AC50 (A-375 [2]) was > 35 µM (active).

With `COc1ccccc1-n1c(O)cc(=O)nc1SC` the EC50 [9] was > 100 µM (inactive).

For `C=CCSc1nc2sc3c(c2c(=O)n1CC)CCc1ccccc1-3`, the IC50 [10] was 13.5 µM (active) and the IC50 [3] was > 80 µM (inactive).

With `O=C(NCc1ccc(OC(F)(F)F)cc1)c1cccc2c1C(=O)c1ccc(N3CCCCC3)cc1S2(=O)=O` the EC50 [11] was 6.58 µM (active), the IC50 [12] was > 109 µM (inactive) and the AC50 [5] was 7.54 µM (active). For the same molecule, the IC50 [13] was > 83.3 µM (inactive).

With `CCOC(=O)c1nnc(/N=c2\ssnc2Cl)o1` the IC50 [14] was 32.5 µM (active).

In the case of `COc1c2ccoc2nc2c(OC)c(OC[C@@H](O)C(C)(C)O)ccc12`, the AC50 (Escherichia coli) is reported as 54.2 µM (active).

In the case of `C=C(C)CNCC(=C)C.Oc1c(Cl)c(Cl)c(Cl)c(Cl)c1Cl`, the AC50 (Cytochrome P450 3A4 [15]) is reported as “inactive”, the AC50 (Cytochrome P450 2C19) is reported as “inconclusive” and the AC50 (Cytochrome P450 2D6) is reported as “inactive”.

For `CC(=O)O.CN1CCN(CN2C(=O)C3C4C=CC(C3C2=O)C2C3C(=O)N(CN5CCN(C)CC5)C(=O)C3C42)CC1` (configuration not stated), the AC50 (Cytochrome P450 2D6) was “inconclusive”.

With `O=C(Cc1ccc(S(=O)(=O)N2CCOCC2)s1)Nc1nc2c(s1)CCCC2` the IC50 [16] was 10.5 µM (active), the AC50 (Cytochrome P450 3A4 [17]) was 14.1 µM (inconclusive) and the IC50 [18] was 4.44 µM (active). For the same molecule, the IC50 (Estrogen receptor beta) was 5.27 µM (not active), the IC50 [19] was 3.2 µM (active) and the IC50 (Estrogen receptor) was 4.69 µM (active). For the same molecule, the AC50 (Cytochrome P450 1A2) was 28.2 µM (inconclusive) and the IC50 [20] was 33.7 µM (active).
